According to ChEMBL document CHEMBL1201862, “PubChem BioAssay data set” (2004):
Active and inactive are the calls of the source.

Tests used:
[1] = molecular target: T1, Neuropeptide Y receptor type 1 (Homo sapiens, UniProt P25929); experiment: Fluorescence-based counterscreen for potentiators or agonists of NPY-Y2: cell-based high-throughput dose response assay for potentiators or agonists of NPY-Y1.; format: functional
T1 sequence (P25929 whole entry): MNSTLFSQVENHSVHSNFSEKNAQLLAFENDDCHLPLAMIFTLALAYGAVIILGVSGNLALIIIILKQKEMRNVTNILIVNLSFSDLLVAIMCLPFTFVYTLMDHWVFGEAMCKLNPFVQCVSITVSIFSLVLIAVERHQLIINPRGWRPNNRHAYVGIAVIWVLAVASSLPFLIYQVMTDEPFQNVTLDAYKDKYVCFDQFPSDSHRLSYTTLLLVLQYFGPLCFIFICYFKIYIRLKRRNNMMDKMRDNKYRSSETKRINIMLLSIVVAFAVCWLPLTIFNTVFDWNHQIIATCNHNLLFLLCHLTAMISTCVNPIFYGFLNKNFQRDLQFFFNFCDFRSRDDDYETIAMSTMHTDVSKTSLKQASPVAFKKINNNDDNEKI

[2] = system: HEK293; experiment: Fluorescence-based counterscreen for potentiators or agonists of NPY-Y2: cell-based high-throughput dose response assay to identify inhibitors of cyclic nucleotide gated ion channel (CNGC) activity. In this assay, the parental HEK293 cell line transfected with a cyclic-nucleotide gated ion channel (CNGC)-based cAMP sensor is used to measure inhibition of isoproterenol-induced CNGC activity by test compound.; format: functional; settings: Homo sapiens;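 also: stimulus is 1 µM isoproterenol at EC100 plus PDE inhibitor Ro 20-1724 at 25 µM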
[3] = molecular target: T1, Neuropeptide Y receptor type 1; experiment: Fluorescence-based counterscreen for agonists of NPY-Y2: cell-based high-throughput dose response assay for agonists of NPY-Y1.; format: functional
[4] = molecular target: T2, Neuropeptide Y receptor type 2 (Homo sapiens, UniProt P49146); experiment: Fluorescence-based cell-based high-throughput dose response assay for agonists of NPY-Y2. [Related pubchem assays: 1703 (Screening assay (CNGC inhibitors).), 1359 (Screening assay (NPY-Y2 potentiators or agonists).), 1304 (Screening assay (NPY-Y1 potentiators or agonists).), 1710 (Screening assay (NPY-Y2 agonists).), 1791 (Summary AID.)]; format: functional
T2 sequence (P49146 whole entry): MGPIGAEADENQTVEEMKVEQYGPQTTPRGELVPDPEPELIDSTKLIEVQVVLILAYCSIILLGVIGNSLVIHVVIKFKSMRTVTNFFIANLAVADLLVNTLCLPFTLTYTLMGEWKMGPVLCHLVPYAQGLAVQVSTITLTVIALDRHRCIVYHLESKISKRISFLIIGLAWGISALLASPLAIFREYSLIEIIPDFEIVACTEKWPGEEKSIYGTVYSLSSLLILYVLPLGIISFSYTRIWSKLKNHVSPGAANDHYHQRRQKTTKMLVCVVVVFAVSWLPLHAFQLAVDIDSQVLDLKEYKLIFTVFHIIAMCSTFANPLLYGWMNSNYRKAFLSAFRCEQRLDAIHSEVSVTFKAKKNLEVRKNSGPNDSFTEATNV

[5] = molecular target: T2, Neuropeptide Y receptor type 2; experiment: Fluorescence-based cell-based high-throughput dose response assay for potentiators or agonists of NPY-Y2. [Related pubchem assays: 1539 (Screening assay (NPY-Y2 potentiators or agonists).), 1703 (Screening assay (CNGC inhibitors).), 1359 (Screening assay (NPY-Y2 potentiators or agonists).), 1304 (Screening assay (NPY-Y1 potentiators or agonists).) …; format: functional
[6] = molecular target: Cytochrome P450 2C9 (Homo sapiens, UniProt P11712); settings: Potency
Cytochrome P450 2C9, sequence (P11712 whole entry): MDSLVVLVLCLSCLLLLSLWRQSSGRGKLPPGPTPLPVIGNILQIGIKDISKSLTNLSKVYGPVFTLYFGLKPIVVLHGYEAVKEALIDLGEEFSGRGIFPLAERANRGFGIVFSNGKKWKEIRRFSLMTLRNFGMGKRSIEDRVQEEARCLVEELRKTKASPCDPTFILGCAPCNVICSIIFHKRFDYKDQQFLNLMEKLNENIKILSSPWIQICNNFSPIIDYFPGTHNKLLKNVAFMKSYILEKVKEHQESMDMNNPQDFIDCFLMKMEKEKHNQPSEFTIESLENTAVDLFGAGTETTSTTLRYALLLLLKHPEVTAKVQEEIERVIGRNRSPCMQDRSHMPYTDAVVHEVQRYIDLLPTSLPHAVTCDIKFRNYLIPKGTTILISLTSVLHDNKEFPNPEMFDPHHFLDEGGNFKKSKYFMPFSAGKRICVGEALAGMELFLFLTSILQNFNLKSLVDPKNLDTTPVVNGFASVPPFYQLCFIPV

[7] = Luminescence Cell-Based Dose Confirmation HTS to Identify Activators of 5'UTR Stem-Loop Driven Alpha-Synuclein mRNA Translation in H4 Neuroglioblastoma Cells. [Related pubchem assays: 1829 (Project Summary), 1814 (Primary HTS)]; format: functional
[8] = viability of uninfected HEp-2 cells – cell-based, HTS, cytotoxicity control for RSV inhibitor project, dose response (AID 2410); format: functional; settings: human respiratory syncytial virus
[9] = molecular target: T3, Mannose-6-phosphate isomerase (Homo sapiens, UniProt P34949); experiment: MPI inhibition at elevated mannose 6-phosphate – biochemical, fluorescence intensity, high mannose 6-phosphate, primary screen (AID 1220)
T3 sequence (P34949 whole entry): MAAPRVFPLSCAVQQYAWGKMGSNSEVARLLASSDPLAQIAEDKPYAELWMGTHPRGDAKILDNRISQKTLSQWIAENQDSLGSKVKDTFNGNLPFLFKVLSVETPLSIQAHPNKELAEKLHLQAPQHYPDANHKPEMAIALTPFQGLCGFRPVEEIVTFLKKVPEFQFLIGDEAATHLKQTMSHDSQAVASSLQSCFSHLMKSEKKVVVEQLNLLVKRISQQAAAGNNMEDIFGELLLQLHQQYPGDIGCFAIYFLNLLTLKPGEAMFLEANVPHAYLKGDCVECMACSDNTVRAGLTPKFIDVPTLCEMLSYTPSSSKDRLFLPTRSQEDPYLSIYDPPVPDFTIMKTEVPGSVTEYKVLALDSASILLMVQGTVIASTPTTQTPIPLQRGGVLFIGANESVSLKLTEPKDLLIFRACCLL

[10] = system: H4; experiment: Luminescence Cell-Based Dose Response HTS to Identify Activators of 5'UTR Stem-Loop Driven Prion Protein mRNA Translation in H4 Neuroglioblastoma Cells. [Related pubchem assays: 1829 (Project Summary), 1814 (Primary HTS)]; format: functional; settings: Homo sapiens
[11] = molecular target: T3, Mannose-6-phosphate isomerase; experiment: MPI enzyme activity inhibition – biochemical, fluorescence intensity, coupled assay, primary screen (AID 1209)
[12] = Luminescence Cell-Based Dose Response HTS to Identify Activators of Luciferase Translation or Activity in H4 […] Cells. [Related pubchem assays: 1829 (Project Summary), 1814 (Primary HTS)]; format: functional
[13] = system: BJ; experiment: BJ-TERT fibroblast viability loss – cell-based, RAS-independent, luminescence, dose response (AID 1933); format: functional; settings: Homo sapiens
[14] = alpha-synuclein stem-loop translation blockers – luminescence, H4 neuroglioblastoma cells, dose confirmation, confirmation (AID 2454); format: functional, cell-based;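 also: H4 neuroglioblastoma cells carrying an alpha-synuclein 5'UTR luciferase reporter; potency for inhibition of the luciferase signal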
[15] = system: BJ; experiment: growth inhibition of engineered Ras-driven BJ cells – cell-based, alamar blue fluorescence, cherrypicked samples, dose response (AID 2631); format: functional; settings: Homo sapiens;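 also: confirmatory dose-response assay in RAS-dependent BJ fibroblasts engineered with TERT, LT and ST, with cytotoxicity read by fluorescence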
[16] = alpha-synuclein stem-loop luciferase translation blockers – H4 neuroglioma cells, luminescence, confirmation (AID 1988); format: functional, cell-based
[17] = system: BJ; experiment: BJ-TERT-LT-ST fibroblast viability loss – cell-based, RAS-independent, luminescence, dose response (AID 1935); format: functional; settings: Homo sapiens;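 also: BJ fibroblasts immortalized with TERT plus LT and ST oncogenes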
[18] = Luminescence Cell-Based Dose Response HTS to Identify Inhibitors of 5'UTR Stem-Loop Driven Prion Protein mRNA Translation in H4 Neuroglioblastoma Cells. [Related pubchem assays: 1827 (Project Summary), 1813 (Primary HTS)]; format: functional
[19] = system: BJ; experiment: cells; format: functional, cell-based; settings: Homo sapiens
[20] = DRD fibroblast viability loss – cell-based, non-viral oncogenic, luminescence, dose response (AID 1934); format: functional; settings: Homo sapiens
[21] = luciferase reporter signal suppression in cells – H4 neuroglioma cells, luminescence, dose response (AID 1990); format: functional, cell-based
[22] = cells; format: functional, cell-based
[23] = luciferase reporter signal reduction – luminescence, H4-C neuroglioblastoma cells, dose response (AID 2458); format: functional, cell-based;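 also: H4 neuroglioblastoma cells stably carrying a luciferase reporter gene fusion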
[24] = molecular target: Dual specificity protein phosphatase 3 (Homo sapiens, UniProt P51452); experiment: inhibition constants for human DUSP3 – biochemical, colorimetric, SAR follow-up (AID 2004)
Dual specificity protein phosphatase 3, sequence (P51452 whole entry): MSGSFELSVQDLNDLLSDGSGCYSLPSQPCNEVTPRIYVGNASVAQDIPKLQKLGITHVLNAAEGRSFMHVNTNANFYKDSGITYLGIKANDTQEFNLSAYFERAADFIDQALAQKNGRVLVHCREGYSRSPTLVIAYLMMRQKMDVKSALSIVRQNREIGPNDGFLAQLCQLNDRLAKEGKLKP

[25] = molecular target: T4, Bcl-2-related protein A1 (Mus musculus, UniProt Q07440); experiment: Bfl-1 binding inhibitors, SAR follow-up, biochemical, fluorescence polarization (AID 1070)
T4 sequence (Q07440 whole entry): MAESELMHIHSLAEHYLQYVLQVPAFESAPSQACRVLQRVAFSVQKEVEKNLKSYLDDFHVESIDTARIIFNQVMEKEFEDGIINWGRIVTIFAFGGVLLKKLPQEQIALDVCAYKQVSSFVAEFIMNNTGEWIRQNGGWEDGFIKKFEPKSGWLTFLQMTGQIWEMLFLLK

[26] = molecular target: T4, Bcl-2-related protein A1; experiment: small-molecule antagonists of Bfl-1/BH3 interaction – biochemical, TR-FRET, mouse Bfl-1, confirmation (AID 621);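 also: TR-FRET binding of GST-Bfl-1 to FITC-labelled Bid peptide via terbium antibody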
[27] = molecular target: Induced myeloid leukemia cell differentiation protein Mcl-1 (Homo sapiens, UniProt Q07820); format: functional
Induced myeloid leukemia cell differentiation protein Mcl-1, sequence (Q07820 whole entry, the tested form may be a part): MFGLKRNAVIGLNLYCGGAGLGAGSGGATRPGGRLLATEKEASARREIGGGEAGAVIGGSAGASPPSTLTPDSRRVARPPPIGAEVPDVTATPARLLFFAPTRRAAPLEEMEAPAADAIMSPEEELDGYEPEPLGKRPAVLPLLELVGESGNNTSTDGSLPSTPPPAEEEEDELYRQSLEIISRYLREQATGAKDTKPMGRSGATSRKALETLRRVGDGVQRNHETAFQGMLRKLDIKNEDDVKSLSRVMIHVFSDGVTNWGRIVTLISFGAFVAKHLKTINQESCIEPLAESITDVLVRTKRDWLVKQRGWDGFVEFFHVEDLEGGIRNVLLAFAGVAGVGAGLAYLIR

[28] = molecular target: T5, Carboxy-terminal domain RNA polymerase II polypeptide A small phosphatase 1 (Homo sapiens, UniProt Q9GZU7); experiment: CTDSP1 inhibitors, concentration-response, biochemical, absorbance readout, ultra-high-throughput screen actives (AID 540297); format: functional
T5 sequence (Q9GZU7 whole entry): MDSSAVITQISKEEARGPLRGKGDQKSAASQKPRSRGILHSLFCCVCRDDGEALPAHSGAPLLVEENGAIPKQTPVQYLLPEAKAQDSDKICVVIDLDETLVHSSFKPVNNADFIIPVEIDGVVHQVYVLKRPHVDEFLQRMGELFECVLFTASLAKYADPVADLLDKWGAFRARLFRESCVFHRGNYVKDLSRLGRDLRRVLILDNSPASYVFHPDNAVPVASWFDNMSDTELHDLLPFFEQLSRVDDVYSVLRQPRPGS

[29] = molecular target: NS3 (Hepatitis C virus, UniProt A3EZJ3); experiment: PubChem AID 2173; design: species or system Hepacivirus hominis
NS3, sequence (A3EZJ3 whole entry): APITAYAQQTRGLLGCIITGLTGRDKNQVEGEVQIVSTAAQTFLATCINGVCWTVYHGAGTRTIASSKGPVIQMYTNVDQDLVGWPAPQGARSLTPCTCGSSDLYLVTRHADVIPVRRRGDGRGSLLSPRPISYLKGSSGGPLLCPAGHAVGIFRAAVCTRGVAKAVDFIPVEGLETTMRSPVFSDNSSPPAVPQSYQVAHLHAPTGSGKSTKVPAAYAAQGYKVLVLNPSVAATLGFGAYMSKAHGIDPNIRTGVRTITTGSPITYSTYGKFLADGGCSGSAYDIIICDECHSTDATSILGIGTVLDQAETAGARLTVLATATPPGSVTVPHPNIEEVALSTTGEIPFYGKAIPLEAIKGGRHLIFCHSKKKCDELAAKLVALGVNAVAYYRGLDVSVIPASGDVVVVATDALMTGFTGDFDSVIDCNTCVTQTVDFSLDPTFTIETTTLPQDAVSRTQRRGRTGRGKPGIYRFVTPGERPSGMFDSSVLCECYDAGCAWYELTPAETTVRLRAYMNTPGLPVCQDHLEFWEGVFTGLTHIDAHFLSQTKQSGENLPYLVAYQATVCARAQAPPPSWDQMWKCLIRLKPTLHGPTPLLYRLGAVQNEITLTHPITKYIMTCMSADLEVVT

[30] = IC50 of Artemis nuclease activity blockers – biochemical, fluorescence intensity, dose response (AID 720701); format: functional;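 also: Artemis endonuclease enzyme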

CCN(CC)CC(O)Cn1c2ccccc2c2ccccc21 (stereo unspecified)
EC50 [1]: > 35.4 µM (not active) | EC50 [2]: 1.49 µM (active) | EC50 [3]: 12.5 µM (not active) | EC50 [4]: 29.6 µM (not active) | EC50 [5]: > 35.4 µM (not active)

C=CCOC(=O)C(C(C)=O)C(NC(=O)OC)c1ccc(Cl)cc1 (stereo unspecified)
AC50 [6]: 3.16 µM (inconclusive)

CCOC(=O)c1c(C)oc2c1c1c(c3ccccc32)OCN(Cc2ccccn2)C1
EC50 [7]: 1.87 µM (active) | CC50 [8]: 40.2 µM (active) | IC50 [9]: > 50 µM (not active) | EC50 [10]: 0.816 µM (active) | IC50 [11]: > 50 µM (not active) | EC50 [12]: 12.9 µM (active)

COc1ccc(S(=O)(=O)N2c3ccc(F)cc3CCC2C)cc1 (stereo unspecified)
EC50 [13]: 0.675 µM (active) | EC50 [14]: 1.01 µM (active) | EC50 [15]: 0.25 µM (active) | EC50 [16]: < 0.1 µM (active) | EC50 [17]: 0.716 µM (inconclusive) | EC50 [18]: < 0.1 µM (active) | EC50 [19]: 1.21 µM (inconclusive) | EC50 [20]: 0.776 µM (active) | EC50 [21]: 1.8 µM (active) | EC50 [22]: > 12 µM (inconclusive) | EC50 [23]: 0.757 µM (active)

Cc1cccc(COc2ccc3c(c2)oc(=O)c2ccccc23)c1
Ki [24]: 26.4 µM (inactive)

COc1ccc2nc(O)c(-c3nnn(-c4ccc(Cl)c(Cl)c4)n3)cc2c1
CC50 [8]: > 50 µM (active) | IC50 [25]: > 100 µM (not active) | IC50 [26]: > 100 µM (not active)

O=C(Nc1nc(-c2ccco2)c(-c2ccco2)s1)C1CC(=O)N(c2ccc3c(c2)OCCO3)C1 (stereo unspecified)
IC50 [27]: 4.4 µM (active) | IC50 [28]: 3.1 µM (active) | IC50 [29]: 26.3 µM (not active) | IC50 [30]: > 20 µM (inactive)
